pIC50: −log10 of the molar value. Values after ≈ are worked out from the molar mass of the structure shown.
Columns and labels:
Plasma = assay: (§1) Fraction unbound (%) in human plasma at 10 uM by LC/MS-MS analysis; format: ADME, cell-free; details: 10 µM
[1] = Equilibrium solubility of the compound in phosphate buffer by LC-MS analysis
[2] = Inhibition of Escherichia coli switch region of RNA polymerase after 1 hr by transcription-coupled translation assay
Haemophilus influenzae = assay: Antibacterial activity against Haemophilus influenzae acrB by broth microdilution method; format: functional
[3] = octanol/water, pH 7.4
Description: (§2) Partition coefficient, log D of the compound at pH 7.4 by shake flask method

physchem = details: octanol/water, pH 7.4
Description: as §2

[4] = as §1; format: ADME, cell-free

Cc1noc(C)c1S(=O)(=O)Nc1c(N2CCC(N(C)Cc3ccc(Cl)cc3)CC2)c(=O)c1=O
Fu (Plasma): 3.8%
solubility thermodynamic [1]: > 1000 µM
pIC50 [2]: 6.48
MIC (Haemophilus influenzae): 50 µM (≈ 24.6 µg/mL)
logD [3]: 0.5

Cc1noc(C)c1S(=O)(=O)Nc1c(N2CCC(CCc3ccccc3)CC2)c(=O)c1=O
Fu (Plasma): < 1%
solubility thermodynamic [1]: 636 µM (≈ 282 µg/mL)
pIC50 [2]: 6.49
logD [3]: 0

Cc1noc(C)c1S(=O)(=O)Nc1c(N2CCC(N(C)CC3CCCCC3)CC2)c(=O)c1=O
Fu (Plasma): 38%
solubility thermodynamic [1]: 12.2 µM (≈ 5.67 µg/mL)
pIC50 [2]: < 4.00
logD [3]: -0.4

Cc1noc(C)c1S(=O)(=O)Nc1c(N2CCC(Cc3ccccc3)CC2)c(=O)c1=O
logD (physchem): 0.1
fraction unbound at 10 µM [4]: < 0.01
solubility thermodynamic [1]: > 1000 µM
pIC50 [2]: 6.55
MIC (Haemophilus influenzae): 200 µM (≈ 85.9 µg/mL)

Cc1noc(C)c1S(=O)(=O)Nc1c(N2CCC(C)CC2)c(=O)c1=O
Fu (Plasma): 1.6%
solubility thermodynamic [1]: 773 µM (≈ 273 µg/mL)
pIC50 [2]: < 4.00
logD [3]: -1

CO[C@H]1/C=C/O[C@@]2(C)Oc3c(C)c(O)c4c(O)c(c(/C=N/N5CCN(C)CC5)c(O)c4c3C2=O)NC(=O)/C(C)=C\C=C\[C@H](C)[C@H](O)[C@@H](C)[C@@H](O)[C@@H](C)[C@H](OC(C)=O)[C@@H]1C [RIFAMPIN]
Fu (Plasma): 16.5%
solubility thermodynamic [1]: 751 µM (≈ 618 µg/mL)
MIC (Haemophilus influenzae): 0.025 µM (≈ 0.0206 µg/mL)
logD [3]: 1.3

Cc1ccc(CC2CCN(c3c(NS(=O)(=O)c4c(C)noc4C)c(=O)c3=O)CC2)cc1
Fu (Plasma): < 1%
solubility thermodynamic [1]: > 1000 µM
pIC50 [2]: 6.54
MIC (Haemophilus influenzae): 12.5 µM (≈ 5.54 µg/mL)
logD [3]: 0.5

Cc1noc(C)c1S(=O)(=O)Nc1c(N2CCC(NCc3ccc(F)cc3)CC2)c(=O)c1=O
Fu (Plasma): 26%
solubility thermodynamic [1]: 52 µM (≈ 24.1 µg/mL)
pIC50 [2]: 5.57
MIC (Haemophilus influenzae): > 200 µM
logD [3]: 0

Cc1noc(C)c1S(=O)(=O)Nc1c(N2CCN(CCc3ccccc3)CC2)c(=O)c1=O
Fu (Plasma): 4.9%
solubility thermodynamic [1]: 560 µM (≈ 249 µg/mL)
pIC50 [2]: 4.37
logD [3]: -0.4

Cc1noc(C)c1S(=O)(=O)Nc1c(N2CCN(Cc3ccc(C#N)cc3)CC2)c(=O)c1=O
Fu (Plasma): 2.9%
solubility thermodynamic [1]: > 1000 µM
pIC50 [2]: 5.82
MIC (Haemophilus influenzae): 200 µM (≈ 91.1 µg/mL)
logD [3]: -1.3

CC(=O)NC[C@H]1CN(c2ccc(N3CCOCC3)c(F)c2)C(=O)O1 [LINEZOLID]
MIC (Haemophilus influenzae): 12.5 µM (≈ 4.22 µg/mL)

Cc1noc(C)c1S(=O)(=O)Nc1c(N2CCCC(Cc3ccccc3)C2)c(=O)c1=O (centres undefined)
Fu (Plasma): < 1%
solubility thermodynamic [1]: 985 µM (≈ 423 µg/mL)
pIC50 [2]: 4.15
logD [3]: -0.3

CCCC/C(C)=C/C=C(\C)C(=O)c1c(O)cc(C(C)CC/C=C/NC(=O)OC)oc1=O (racemic)
Fu (Plasma): < 1%
solubility thermodynamic [1]: 679 µM (≈ 293 µg/mL)
pIC50 [2]: 6.00
logD [3]: -0.3

O=c1c(NS(=O)(=O)c2ccccc2)c(N2CCC(Cc3ccccc3)CC2)c1=O
Fu (Plasma): < 1%
solubility thermodynamic [1]: > 1000 µM
pIC50 [2]: 5.68
MIC (Haemophilus influenzae): 200 µM (≈ 82.1 µg/mL)
logD [3]: 0.2

Cc1nn(C(F)F)cc1S(=O)(=O)Nc1c(N2CCC(Cc3ccccc3)CC2)c(=O)c1=O
Fu (Plasma): < 1%
solubility thermodynamic [1]: > 1000 µM
pIC50 [2]: 5.10
MIC (Haemophilus influenzae): 100 µM (≈ 46.4 µg/mL)
logD [3]: -0.1

Cc1noc(C)c1S(=O)(=O)Nc1c(N2CCC(N(C)Cc3ccc(OC(F)F)cc3)CC2)c(=O)c1=O
pIC50 [2]: 6.37
MIC (Haemophilus influenzae): 50 µM (≈ 26.2 µg/mL)

Cc1noc(C)c1C(=O)Nc1c(N2CCC(Cc3ccccc3)CC2)c(=O)c1=O
Fu (Plasma): < 1%
solubility thermodynamic [1]: 508 µM (≈ 200 µg/mL)
pIC50 [2]: < 4.00
logD [3]: 1.7

COc1ccc(CN2CCN(c3c(NS(=O)(=O)c4c(C)noc4C)c(=O)c3=O)CC2)cc1
Fu (Plasma): 1.8%
solubility thermodynamic [1]: 497 µM (≈ 229 µg/mL)
pIC50 [2]: 5.52
MIC (Haemophilus influenzae): > 200 µM
logD [3]: -0.9

Cc1noc(C)c1S(=O)(=O)Nc1c(N2CCC(c3ccccc3)CC2)c(=O)c1=O
Fu (Plasma): < 1%
solubility thermodynamic [1]: 763 µM (≈ 317 µg/mL)
pIC50 [2]: 4.59
logD [3]: -0.6

Cc1noc(C)c1S(=O)(=O)Nc1c(N2CCC(NCc3ccc(C(F)(F)F)cc3)CC2)c(=O)c1=O
Fu (Plasma): 6.6%
solubility thermodynamic [1]: > 1000 µM
pIC50 [2]: 6.54
MIC (Haemophilus influenzae): 25 µM (≈ 12.8 µg/mL)
logD [3]: 0.8

From ChEMBL document CHEMBL3425489, “X-ray crystal structures of Escherichia coli RNA polymerase with switch region binding inhibitors enable rational design of squaramides with an improved fraction unbound to human plasma protein” (J Med Chem, 2015)
